# From US20240158446A1, “CYCLIC COMPOUND HAVING SELECTIVE INHIBITORY ACTION ON KRAS OVER HRAS AND NRAS” (CHUGAI SEIYAKU KABUSHIKI KAISHA, priority 2021, published 2024)
# Where a SMILES comes first, the peptide text is derived from it. Bridges are numbered along the chain shown (N, C = ends). [ ]: non-standard residue; d: D form. The star is where a group is joined. hPhe(3-Cl-4-CF3) = N[C@@H](CCc1ccc(C(F)(F)F)c(Cl)c1)C(=O)O; NPrPhe(4-CF3) = CCCN[C@@H](Cc1ccc(C(F)(F)F)cc1)C(=O)O; NMeGly(cPent) = CN[C@H](C(=O)O)C1CCCC1; NMeD = CN[C@@H](CC(=O)O)C(=O)O; NMeL = CN[C@@H](CC(C)C)C(=O)O; Morpholide = C1CN(*)CCO1; Ac5c = NC1(C(=O)O)CCCC1; Sar = CNCC(=O)O
# Assays:
# [1] = target: GDP-bound NRAS wild-type protein (Homo sapiens, UniProt P01111); assay: Binding to NRAS by surface plasmon resonance (SPR), Single Cycle Kinetics; details: ratio of KD for GDP-bound NRAS wild-type protein to KD for KRAS, SPR
# Sequence of GDP-bound NRAS wild-type protein (P01111 whole entry): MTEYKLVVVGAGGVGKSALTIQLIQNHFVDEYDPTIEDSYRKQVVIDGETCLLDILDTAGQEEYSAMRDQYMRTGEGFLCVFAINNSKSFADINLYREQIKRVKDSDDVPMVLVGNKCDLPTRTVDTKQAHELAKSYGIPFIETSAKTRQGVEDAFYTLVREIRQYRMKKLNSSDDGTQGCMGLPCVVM
# [2] = target: GDP-bound HRAS wild-type protein (Homo sapiens, UniProt P01112); assay: Binding to HRAS by surface plasmon resonance (SPR), Single Cycle Kinetics; details: ratio of KD for GDP-bound HRAS wild-type protein to KD for KRAS, SPR
# Sequence of GDP-bound HRAS wild-type protein (P01112 whole entry): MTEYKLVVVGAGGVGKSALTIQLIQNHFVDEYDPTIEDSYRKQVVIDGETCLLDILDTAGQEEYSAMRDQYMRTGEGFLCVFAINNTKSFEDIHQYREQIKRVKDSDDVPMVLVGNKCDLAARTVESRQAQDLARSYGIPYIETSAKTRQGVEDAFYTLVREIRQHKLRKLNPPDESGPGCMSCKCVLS
# [3] = tested on: human lung cancer strain NCI-H441; assay: cells; details: NCI-H441, 96 h, read-out: NCI-H441 IC50 (nM), NCI-H441 cell proliferation, 4 days, CellTiter-Glo;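 further: cell proliferation inhibition after four days measured by CellTiter-Glo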
SMILES,NRAS/KRAS (KD ratio) [1],HRAS/KRAS (KD ratio) [2],IC50 [3] [nM]
CCO[C@@H]1C[C@H]2C(=O)NC3(CCC3)C(=O)N(C)[C@@H](C(CC)CC)C(=O)N(C)[C@H](C3CCC3)CC(=O)N(C)[C@@H](CC3CC3)C(=O)N[C@@H]([C@@H](C)CC)C(=O)N(C)CC(=O)N(C)[C@H]3C/C=C\CCN(C3=O)[C@@H](Cc3ccc(C(F)(F)F)cc3)C(=O)N(C)CC(=O)N[C@@H](CCc3cc(F)c(C(F)(F)F)c(F)c3)C(=O)N2C1 [PP1636],A (a compound having 10 or more and less than 20 is denoted as A),A (a compound having 10 or more and less than 20 is denoted as A),95.2
CCCN(C)C(=O)[C@@H]1CC(=O)N(C)[C@@H](CC)C(=O)N[C@@H]([C@@H](C)CC)C(=O)N(C)CC(=O)N(C)[C@H]2C/C=C\CCN(C2=O)[C@@H](Cc2ccc(C(F)(F)F)cc2)C(=O)N(C)CC(=O)N[C@@H](CCc2ccc(C(F)(F)F)c(OC)c2)C(=O)N2C[C@H](OCC)C[C@H]2C(=O)NC2(CC(C)(C)C2)C(=O)N(C)[C@@H](C2CCCC2)C(=O)N1C [PP1654],A (a compound having 10 or more and less than 20 is denoted as A),A (a compound having 10 or more and less than 20 is denoted as A),2.5
CCO[C@@H]1C[C@H]2C(=O)NC3(CCC3)C(=O)N(C)[C@@H](C3CCCC3)C(=O)N(C)[C@H](C(=O)N(C)CC)CC(=O)N(C)[C@@H](CC3CCC3)C(=O)N[C@@H]([C@@H](C)CC)C(=O)N(C)CC(=O)N(C)[C@H]3C/C=C\CCN(C3=O)[C@@H](Cc3ccc(C(F)(F)F)cc3)C(=O)N(C)CC(=O)N[C@@H](CCc3cc(F)c(C(F)(F)F)c(F)c3)C(=O)N2C1 [PP1667],A (a compound having 10 or more and less than 20 is denoted as A),A (a compound having 10 or more and less than 20 is denoted as A),2
CCCC[C@H]1C(=O)N[C@@H]([C@@H](C)CC)C(=O)N(C)CC(=O)N(C)[C@H]2C/C=C\CCN(C2=O)[C@@H](Cc2ccc(C(F)(F)F)cc2)C(=O)N(C)CC(=O)N[C@@H](CCc2cc(F)c(C(F)(F)F)c(F)c2)C(=O)N2C[C@H](F)C[C@H]2C(=O)NC2(CC(C)(C)C2)C(=O)N(C)[C@@H](C2CCCC2)C(=O)N(C)[C@H](C(=O)N(C)C)CC(=O)N1C [PP1693],AA (a compound having 20 or more is denoted as AA),A (a compound having 10 or more and less than 20 is denoted as A),1.1
CCO[C@@H]1C[C@H]2C(=O)NC3(CCC3)C(=O)N(C)[C@@H](C3CCCC3)C(=O)N(C)[C@H](C(=O)N(C)CC)CC(=O)N(C)[C@@H](CC(F)(F)F)C(=O)N[C@@H]([C@@H](C)CC)C(=O)N(C)CC(=O)N(C)[C@H]3C/C=C\CCN(C3=O)[C@@H](Cc3ccc(C(F)(F)F)cc3)C(=O)N(C)CC(=O)N[C@@H](CCc3cc(F)c(C(F)(F)F)c(F)c3)C(=O)N2C1 [PP1701],A (a compound having 10 or more and less than 20 is denoted as A),A (a compound having 10 or more and less than 20 is denoted as A),3.7
CC[C@H](C)[C@@H]1NC(=O)[C@H](CC)N(C)C(=O)C[C@@H](C(=O)N(C)C)N(C)C(=O)[C@H](C2CCCC2)N(C)C(=O)C2(CCC2)N(C)C(=O)[C@@H]2CCCN2C(=O)[C@H](CCc2cc(F)c(C(F)(F)F)c(F)c2)NC(=O)CN(C)C(=O)[C@H](Cc2ccc(C)cc2)N2CC/C=C\C[C@@H](C2=O)N(C)C(=O)CN(C)C1=O [PP1782],A (a compound having 10 or more and less than 20 is denoted as A),B (a compound having 3 or more and less than 10 is denoted as B),6.7
CC[C@H](C)[C@@H]1NC(=O)[C@H](C2CC2)N(C)C(=O)C[C@@H](C(=O)N(C)C)N(C)C(=O)[C@H](C2CCCC2)N(C)C(=O)C2(CCC2)N(C)C(=O)[C@@H]2C[C@@H](C)CN2C(=O)[C@H](CCc2cc(F)c(C(F)(F)F)c(F)c2)NC(=O)CN(C)C(=O)[C@H](Cc2ccc(C)cc2)N2CC/C=C\C[C@@H](C2=O)N(C)C(=O)CN(C)C1=O [PP1788],B (a compound having 3 or more and less than 10 is denoted as B),B (a compound having 3 or more and less than 10 is denoted as B),6.2
CCC[C@H]1C(=O)N[C@@H]([C@@H](C)CC)C(=O)N(C)CC(=O)N(C)[C@H]2C/C=C\CCN(C2=O)[C@@H](Cc2ccc(C)cc2)C(=O)N(C)CC(=O)N[C@@H](CCc2cc(F)c(C(F)(F)F)c(F)c2)C(=O)N2CCC[C@H]2C(=O)N(C)C2(CCC2)C(=O)N(C)[C@@H](C2CCCC2)C(=O)N(C)[C@H](C(=O)N(C)C)CC(=O)N1C [PP1794],A (a compound having 10 or more and less than 20 is denoted as A),B (a compound having 3 or more and less than 10 is denoted as B),8.7
CCO[C@@H]1C[C@H]2C(=O)N(C)C3(CCC3)C(=O)N(C)[C@@H](C3CCCC3)C(=O)N(C)[C@H](C(=O)N(C)C)CC(=O)N(C)[C@@H](CC3CC3)C(=O)N[C@@H]([C@@H](C)CC)C(=O)N(C)CC(=O)N(C)[C@H]3C/C=C\CCN(C3=O)[C@@H](Cc3ccc(C)cc3)C(=O)N(C)CC(=O)N[C@@H](CCc3cc(F)c(C(F)(F)F)c(F)c3)C(=O)N2C1 [PP1795],A (a compound having 10 or more and less than 20 is denoted as A),B (a compound having 3 or more and less than 10 is denoted as B),3
CC[C@H](C)[C@@H]1NC(=O)[C@H](CC2CC2)N(C)C(=O)C[C@@H](C(=O)N(C)C)N(C)C(=O)[C@H](C2CCCC2)N(C)C(=O)C2(CCC2)N(C)C(=O)[C@@H]2CCCN2C(=O)[C@H](CCc2cc(F)c(C(F)(F)F)c(F)c2)NC(=O)CN(C)C(=O)[C@H](Cc2ccc(C)cc2)N2CC/C=C\C[C@@H](C2=O)N(C)C(=O)CN(C)C1=O [PP1796],A (a compound having 10 or more and less than 20 is denoted as A),B (a compound having 3 or more and less than 10 is denoted as B),5.3
CC[C@H](C)[C@@H]1NC(=O)[C@H](CC2CC2)N(C)C(=O)C[C@@H](C(=O)N(C)C)N(C)C(=O)[C@H](C2CCCC2)N(C)C(=O)C2(CCC2)N(C)C(=O)[C@@H]2C[C@@H](C)CN2C(=O)[C@H](CCc2cc(F)c(C(F)(F)F)c(F)c2)NC(=O)CN(C)C(=O)[C@H](Cc2ccc(C)cc2)N2CC/C=C\C[C@@H](C2=O)N(C)C(=O)CN(C)C1=O [PP1800],A (a compound having 10 or more and less than 20 is denoted as A),A (a compound having 10 or more and less than 20 is denoted as A),6.5
CC[C@H](C)[C@@H]1NC(=O)[C@H](CC2CC2)N(C)C(=O)C[C@@H](C(=O)N(C)C)N(C)C(=O)[C@H](C2CCCC2)N(C)C(=O)C2(CCC2)N(C)C(=O)[C@@H]2C[C@@H](C)CN2C(=O)[C@H](CCc2cc(F)c(C(F)(F)F)c(F)c2)NC(=O)CN(C)C(=O)[C@H](Cc2ccc(C)cc2)N2CC/C=C\C[C@@H](C2=O)N(C)C(=O)[C@@H]2CCCN2C1=O [PP1801],A (a compound having 10 or more and less than 20 is denoted as A),B (a compound having 3 or more and less than 10 is denoted as B),13
CC[C@H](C)[C@@H]1NC(=O)[C@H](CC)N(C)C(=O)C[C@@H](C(=O)N(C)CC)N(C)C(=O)[C@H](C2CCCC2)N(C)C(=O)C2(CC(C)(C)C2)NC(=O)[C@@H]2C[C@@H](C)CN2C(=O)[C@H](CCc2cc(F)c(C(F)(F)F)c(F)c2)NC(=O)CN(C)C(=O)[C@H](Cc2ccc(C)cc2)N2CC/C=C\C[C@@H](C2=O)N(C)C(=O)CN(C)C1=O [PP1884],,,17.3
CC[C@H](C)[C@@H]1NC(=O)[C@H](CC2CC2)N(C)C(=O)C[C@@H](C(=O)N(C)CC)N(C)C(=O)[C@H](C2CCCC2)N(C)C(=O)C2(CCC2)NC(=O)[C@@H]2C[C@H](C)CN2C(=O)[C@H](CCc2ccc(C(F)(F)F)c(OC)c2)NC(=O)CN(C)C(=O)[C@H](Cc2ccc(C)cc2)N2CC/C=C\C[C@@H](C2=O)N(C)C(=O)CN(C)C1=O [PP1897],,,22.6
CCCN1C(=O)CN(C)C(=O)CN(C)C(=O)[C@H]([C@@H](C)CC)NC(=O)[C@H](CC(C)C)N(C)C(=O)C[C@@H](C(=O)N2CCOCC2)N(C)C(=O)[C@H](C2CCCC2)N(C)C(=O)C2(CCCC2)NC(=O)[C@H](C)NC(=O)[C@H](CCc2ccc(C(F)(F)F)c(Cl)c2)NC(=O)CN(C)C(=O)[C@@H]1Cc1ccc(C(F)(F)F)cc1 [PP1914] ([NMeL]I[Sar][Sar][NPrPhe(4-CF3)][Sar][hPhe(3-Cl-4-CF3)]A[Ac5c][NMeGly(cPent)][NMeD]-Morpholide; lactam N-11),,,39.7
CCCN(C)C(=O)[C@@H]1CC(=O)N(C)[C@@H](COCC)C(=O)N[C@@H]([C@@H](C)CC)C(=O)N(C)CC(=O)N(C)[C@H]2C/C=C\CCN(C2=O)[C@@H](Cc2ccc(C(F)(F)F)cc2)C(=O)N(C)CC(=O)N[C@@H](CCc2cc(F)c(C(F)(F)F)c(F)c2)C(=O)N2C[C@@H](C)C[C@H]2C(=O)NC2(CCC2)C(=O)N(C)[C@@H](C2CCCC2)C(=O)N1C [PP2002],,,15.7
CCO[C@@H]1C[C@H]2C(=O)NC3(CCC3)C(=O)N(C)[C@@H](C3CCCC3)C(=O)N(C)[C@H](C(=O)N(C)CC)CC(=O)N(C)[C@@H](C(C)C)C(=O)N[C@@H]([C@@H](C)CC)C(=O)N(C)CC(=O)N(C)[C@H]3C/C=C\CCN(C3=O)[C@@H](Cc3ccc(C(F)(F)F)cc3)C(=O)N(C)CC(=O)N[C@@H](CCc3ccc(C(F)(F)F)c(OC)c3)C(=O)N2C1 [PP2019],,,4.5
CCCN(C)C(=O)[C@@H]1CC(=O)N(C)[C@@H](CCOC)C(=O)N[C@@H]([C@@H](C)CC)C(=O)N(C)CC(=O)N(C)[C@H]2C/C=C\CCN(C2=O)[C@@H](Cc2ccc(C(F)(F)F)cc2)C(=O)N(C)CC(=O)N[C@@H](CCc2cc(F)c(C(F)(F)F)c(F)c2)C(=O)N2C[C@H](OCC)C[C@H]2C(=O)NC2(CC(C)(C)C2)C(=O)N(C)[C@@H](C2CCCC2)C(=O)N1C [PP2033],,,11.8
